Measured values reported in patent publication US20230150951A1, “2,5- OR 2,6-DISUBSTITUTED HYDROQUINONE DERIVATIVES WITH AT LEAST ONE CARBOXY, SULFO OR AMIDO GROUP USEFUL AS MEDICAMENTS” (OM PHARMA SA, priority 2020, published 2023).
“Also recorded” adds a separate entry of the source.

System: acute pancreatitis murine model
Test: Caerulein-induced acute pancreatitis murine model
Format: in vivo, Balb/c mice
Design: Serum IL33 level / Serum TGF-B level: unit not given here
Settings: for Acinar cell necrosis (group mean score) / Haemorrhage (group mean score) / Interstitial oedema (group mean score) / Mean terminal BW (% of initial) / Mean terminal pancreas weight / Pancreas histopathology observations (H&E) / Schmidt Score (H&E) / Pancreas IL33 level / Pancreas MPO activity / Pancreas TGF-B level / Serum IL33 level / Serum TGF-B level / Serum amylase level / Serum lipase level / Leukocyte infiltration (group mean score): 1st experiment, 15 mg/kg IV, Ib-010a and IVc-059a 150 mg/kg PO, Pirfenidone 40 mg/kg IV; for Acinar cell necrosis (group mean score) / Haemorrhage (group mean score) / Interstitial oedema (group mean score) / Mean terminal BW (% of initial) / Mean terminal pancreas weight / Pancreas histopathology observations (H&E) / Schmidt Score (H&E) / Leukocyte infiltration (group mean score): caerulein induced; for Schmidt Score (H&E): induced + vehicle = 10, non-induced = 0; for Pancreas IL33 level / Pancreas MPO activity / Pancreas TGF-B level: terminal pancreatic tissue; for Serum IL33 level / Serum TGF-B level / Serum amylase level / Serum lipase level: terminal serum; for TGF-B levels in pancreas / pancreatic tissue levels of IL33 / Global Schmidt score: first experiment; for pancreatic tissue levels of IL33: compared to the induced group; for Global Schmidt score: vs caerulein control animals; for Schmidt Score / Lipase activity in serum / MPO activity in pancreatic tissue / Amylase / IL-33 / Lipase / MPO / TGF-B / Trichome staining (Fibrosis % area): second experiment; for Lipase activity in serum: pirfenidone 100 mg/kg, compounds 15 mg/k, vs vehicle treated animals; for MPO activity in pancreatic tissue: vs induced vehicle treated controls
Description: Therapeutic efficacy of the compounds according to the present invention was assessed on an acute pancreatitis murine model. Tissue samples were obtained to allow post in-life analysis of pancreatitis parameters. Plasma samples were also obtained to assess animal exposure levels after administration of the compounds.
Animals: A total of 70 female Balb/c mice aged 8-10 weeks weighing approximately 20-25 g were used for the study (Charles River). After 7 days acclimatization, they were allocated into the different groups. […] Cages, bedding, and water were sanitized before use. Animals were provided with Corn-o-cobs enrichment bedding to provide environment enrichment and nesting material. […] The animal holding room were maintained as follows—room temperature at 20-24° C., humidity at 30-70% and a 12 h light/dark cycle used. Although animals used in this study were immuno-competent, preparation of dosing solutions and dosing/weighing of animals were carried out in a sterile biosafety cabinet.
Final formulation was in 5% DMSO, 10% Solutol, 10% PEG400, 75% 0.9% Saline and pH adjusted to 7 with 0.5M NaOH solution.
Final formulation is in 5% DMSO, 10% Solutol, 10% PEG400, 75% 0.9% Saline and pH adjusted to 7 with 0.5M NaOH solution. For per os (PO) dosing IVc-059a is formulated in water. Drug solutions were formulated on the day of dosing.
The purposes of this study were to assess efficacy compounds in an acute pancreatitis model (14 days), generate tissue samples to allow post in-life analysis of pancreatitis parameters and generate four plasma samples to assess animal exposure levels after first and last injection obtained from blood samples taken 1 h and 24 h after first and last injection.
Study Design: On the first study day animals were randomly be assigned to treatment groups, ensuring an equal spread of bodyweight. Mice (except negative control group) were treated with test compounds were given 5 minutes prior to caerulein dosing, followed by injection with caerulein at […] via intraperitoneal route (IP) daily during the study.
Treatment of test compounds were given 5 minutes prior to caerulein dosing.
Sampling and post in-life analyses: at times indicated above a whole blood sample (60 μl) were taken from the lateral tail vein into tubes coated with K2-EDTA. Plasma samples were prepared and stored frozen at −20° C. Plasma samples were sent to client bioanalysis provider Eurofins (FR) for quantification of compound.
Terminal Sampling: Prior to termination animals were weighed. Terminal study animals were culled via CO2 inhalation. A terminal blood sample was taken via cardiac puncture and plasma prepared. Lipase and Amylase activities were measured via ELISA using commercially available ELISA kits. Remaining plasma was stored for future cytokine analyses. Pancreas tissue was resected and weighed, and a section ([…]) snap frozen and analysed for quantification of compound in pancreas sample. A section ([…]) was processed for measurement of MPO activity, IL-33 and TGF-B levels via ELISA. The remainder was fixed in formalin and embedded in paraffin wax. H&E staining was carried out and section assessed using Schmidts standard scoring system, examining: edema, inflammatory infiltration, parenchymal necrosis, haemorrhage. Massons' Trichrome staining was carried out and area covered by fibrotic tissue quantified digitally using QuPath software. Terminal serum samples was used to assess blood chemistry using an IdeXX CHEM15 and LYTE4 clip (4 animals per treatment group).
Histopathology assessment of pancreatic injury based on 4 criteria: Oedema, Inflammatory infiltration, Parenchymal necrosis, Haemorrhage and scored as described below.
Schmidt score is the evaluation of the efficacy of the compounds based on the four histopathology criteria as described in the table below.

[1] = IV, 15 mg/kg, Pirfenidone 100 mg/kg

Structure (SMILES)	Acinar cell necrosis (group mean score)	Haemorrhage (group mean score)	Interstitial oedema (group mean score)	Mean terminal BW (% of initial)	Mean terminal pancreas weight	Pancreas histopathology observations (H&E)	Schmidt Score (H&E)	Pancreas IL33 level	Pancreas MPO activity	Pancreas TGF-B level	Serum IL33 level	Serum TGF-B level	Serum amylase level	Serum lipase level	TGF-B levels in pancreas (IV)	pancreatic tissue levels of IL33 (IV)	Lipase activity in serum	Amylase [1]	IL-33 [1]	Lipase [1]	further results
O=C(O)c1cc(O)c(CN(Cc2cc(O)c(C(=O)O)cc2O)Cc2cc(O)c(C(=O)O)cc2O)cc1O [IIIc-061a, Tris(4-carboxy-2,5-dihydroxyphenylmethyl)amine]	0.5	1.0	1.0	91.4 % of initial	0.086 g	Mild oedema observed; also recorded: Mild haemorrhage observed; also recorded: Mild acinar cell necrosis observed; also recorded: Mild leukocyte infiltration observed; also recorded: Normal islet morphology observed	3.5	177 ± 80	2.13	295 ± 146	33.72	4.65	38.38	9.79	decreased significantly	significant decrease	significantly lower than that in vehicle treated animals				Global Schmidt score: especially improved; Schmidt Score (H&E sections): lower scores than the positive control pirfenidone; MPO activity in pancreatic tissue: significantly lower than induced vehicle treated controls
O=C(O)c1cc(NC(=O)c2cc(O)cc(C(=O)Nc3ccc(O)c(C(=O)O)c3)c2O)ccc1O [IIc-007a, 5-(3-(3-carboxy-4-hydroxyphenylaminocarbonyl)-2,5-dihydroxybenzamido)-2-hydroxy benzoic acid]																		45.325 mU/mL	340 ± 211 ng/mL	6.481 mU/mL	MPO [1]: 2.74 ± 0.76 U/mg; Schmidt Score [1]: 8.3 ± 1.6; TGF-B [1]: 500 ± 195 ng/mL; Trichome staining (Fibrosis % area) [1]: 1.821 ± 1.12 % area
O=C(O)c1cc(O)cc(CS(=O)(=O)Cc2cc(O)cc(C(=O)O)c2O)c1O [IVc-059a, 3-((2,5-Dihydroxy-3-carboxyphenyl)methylsulfonylmethyl)-2,5-dihydroxybenzoic acid]	1.0	1.0	1.0	93.3 % of initial	0.09 g	Mild oedema less observed; also recorded: Mild haemorrhage less observed; also recorded: Mild acinar cell necrosis observed; also recorded: Mild leukocyte infiltration observed; also recorded: Some pancreatic islet hyperplasia observed; also recorded: Disruption to the basophilic region	4.0	86 ± 23	2.88	231 ± 199	46.54	5.69	38.56	10.21	decreased significantly	significant decrease	significantly lower than that in vehicle treated animals	41.149 mU/mL	215 ± 84 ng/mL	4.324 mU/mL	Leukocyte infiltration (group mean score): 1.0; Global Schmidt score: especially improved; Schmidt Score (H&E sections): lower scores than the positive control pirfenidone; MPO [1]: 1.813 ± 0.405 U/mg; Schmidt Score [1]: 10.63 ± 2.33; TGF-B [1]: 403 ± 84 ng/mL; Trichome staining (Fibrosis % area) [1]: 1.048 ± 0.449 % area; MPO activity in pancreatic tissue: significantly lower than induced vehicle treated controls
O=C(O)c1cc(O)c(C(=O)Nc2ccccc2C(=O)O)cc1O [Ia-001a, 4-(2-carboxyphenylaminocarbonyl)-2,5-dihydroxybenzoic acid]	0.9	1.1	1.3	90.3 % of initial	0.083 g	Oedema observed throughout pancreas; also recorded: Haemorrhage observed; also recorded: Mild acinar cell less necrosis observed; also recorded: Leukocyte infiltration throughout; also recorded: Abnormal islet morphology observed; also recorded: Disruption to the basophilic region	6.3	330 ± 162	3.76	592 ± 358	39.52	8.69	34.07	6.72		significant decrease					Leukocyte infiltration (group mean score): 3.0
O=C(O)c1cc(O)c(C(=O)Nc2ccccc2-c2nnn[nH]2)cc1O [Ia-001a-Tz, 4-(2-(1H-tetrazol-5-yl)phenyl-aminocarbonyl)-2,5-dihydroxybenzoic acid]				89.1 % of initial	0.084 g		5.9	154 ± 49	2.68	507 ± 289	37.02	8.69	35.35	8.57		significant decrease					
O=C(O)c1cc(NC(=O)c2cc(O)c(C(=O)O)cc2O)cc(C(=O)O)c1 [Ia-015a, 5-(4-carboxy-2,5-dihydroxybenzamido)isophthalic acid]																	significantly lower than that in vehicle treated animals	51.669 mU/mL	398 ± 148 ng/mL	5.31 mU/mL	MPO [1]: 2.68 ± 0.6 U/mg; Schmidt Score [1]: 4.6 ± 0.8; TGF-B [1]: 547 ± 373 ng/mL; Trichome staining (Fibrosis % area) [1]: 1.704 ± 1.621 % area
O=C(O)c1cc(NC(=O)c2cc(O)c(C(=O)O)cc2O)cc(NC(=O)c2cc(O)c(C(=O)O)cc2O)c1 [Ib-010a, 3,5-bis(2,5-dihydroxy-4-carboxybenzoylamino)benzoic acid]	1.0	0.8	1.5	91 % of initial	0.091 g	Oedema observed throughout pancreas and within; also recorded: Mild haemorrhage observed; also recorded: Mild acinar cell necrosis observed; also recorded: Leukocyte infiltration observed; also recorded: Disruption to the basophilic region	6.3	157 ± 70	1.83	219 ± 140	35.36	6.87	37.46	9.06	decreased significantly	significant decrease					Leukocyte infiltration (group mean score): 3.0
